Measured values as given in paper PMC6747274, “Multifunctional Peptides from Spanish Dry-Cured Pork Ham: Endothelial Responses and Molecular Modeling Studies” (International Journal of Molecular Sciences, 2019).
Where no end group is shown, it is not given here.

Key:
NF-κB, EA.hy926 cells = experiment: NF-κB dual luciferase reporter assay; type: cell-based, human; settings: 300 µM peptide 16 h, then 50 ng/mL TNF-α 6 h
Protocol: To evaluate whether the synthetic peptides could modulate the NF-κB biological activity, a luciferase reporter assay was carried out, using the Renilla reporter as a specificity control and indicator of cell proliferation. In this study, NF-B activity was induced at a lower concentration of TNF-α (50 ng/mL) because of the high sensitivity of the approach. The normalized firefly/Renilla luciferase activity was reduced by around 25% of the activity when cells were pretreated with the BP1 (p = 0.002), BP2 (p = 0.003), and BP3 (p = 0.003) synthetic peptides (Figure 3). […] The basal activity for NF-κB was not inhibited by synthetic peptides without TNF-α stimulation (data not shown).
The dual luciferase assay has been widely used in cell lines to rapidly and accurately determine the activity of the promoter of NF-κB. […]
For luciferase reporter assays, 80,000 cells/well were seeded in 24-well plates overnight, followed by cotransfection with 0.5 μg pNF-κB:Luc/pRL-CMV at a ratio of 10:1 using 1.5 μL trans-it X2 reagent (Myrus®, Madison, WI, USA). […] NF-κB-dependent firefly luciferase activity and NF-κB-independent Renilla luciferase activity were assessed using Dual-Luciferase® Reporter Assay System (Promega, Madison, WI, USA) in a Luminometer Optocomp I (MGM Instruments). […]

[1] = test system: VCAM-1 mRNA, EA.hy926 cells; experiment: VCAM-1 mRNA expression by RT-PCR in EA.hy926 cells; type: cell-based, human; settings: 300 µM peptide 16 h, then 100 ng/mL TNF-α 6 h; p = 0.01 (BP2), 0.03 (BP3), 0.02 (BP4)
Protocol: EA.hy926 cells, the hybrid human umbilical vein endothelial cell line, were obtained from the American Type Culture Collection (ATCC® CRL2922™, Rockville, MD, USA). Cells were cultured in high glucose Dulbecco’s Modified Eagle’s Medium (DMEM), containing 10% heat-inactivated fetal bovine serum (FBS, Biowest, Riverside, CA, USA) and 50 U/mL of penicillin and 50 µg/mL streptomycin (Sigma Aldrich Chemical Co., Saint Louis, MO, USA). Cells were grown in 5% CO2 in a humidified air incubator at 37 °C. Subculture was performed when 90% confluence was reached.
EA.hy926 were seeded in six-well plates at 0.25 × 10^6 cells/well in DMEM supplemented with 5% FBS. Cells were treated with 300 µM of each peptide for 16 h. Then, 100 ng/mL TNF-α or 300 µM H2O2 were added for an additional 6 h or 24 h, respectively.
Total RNA was extracted from EA.hy926 cells using 300 µL Trisure™ (Bioline, Taunton, MA, USA) reagent and Direct-zol™ RNA MiniPrep (Zymo Research Irvine, Irvine, CA, USA) according to the manufacturer’s protocol. Total RNA was reverse-transcribed into complementary DNA (Sensifast cDNATM Synthesis kit, Bioline, Taunton, MA, USA). The mRNA levels of the target genes were quantified by RT-PCR using SensiFAST SYBER Hi-ROX Kit (Bioline, Taunton, MA, USA) with StepOnePlus Real-Time PCR System (Applied Biosystems, Foster City, CA, USA). Briefly, 5 µL of 1:5 diluted cDNA was added to the qPCR reaction containing 10 μL 2X SensiFAST Mix and 400 nM of each primer in a total volume of 20 μL.
Specific and validated primers for human glyceraldehyde-3-phosphate dehydrogenase (GADPH), intercellular adhesion marker-1 (ICAM-1), vascular cell adhesion marker-1 (VCAM-1), endothelial nitric oxide synthase (eNOS), interleukin 6 (IL-6), catalase, SOD (Super Oxide Dismutase), NADPH (Nicotinamide Adenine Dinucleotide Phosphate oxidase) and Bax (proapoptosis regulator) genes were used (Sigma-Aldrich Chemical Co., Saint Louis, MO, USA). […]
The relative quantification of gene expression was determined by the comparative fold change […] method. […]

Substance | reduction of normalized firefly/Renilla NF-κB luciferase activity (NF-κB, EA.hy926 cells; vs TNF-α, p = 0.002 (BP1), 0.003 (BP2), 0.003 (BP3), three independent experiments) | VCAM-1 mRNA expression vs TNF-α stimulated cells [1] | NF-κB activation (in words) (NF-κB, EA.hy926 cells; BP4 p = 0.012)
KAAAATP [BP2] | around 25% | downregulated | 
AAATP [BP4] |  | downregulated | repressed by BP4 to a lesser degree
